Measurements: patent publication EP0573360A1, “Pyrrolothienopyrazine compounds as 5-HT3 receptors antagonists” (ADIR ET COMPAGNIE, priority 1992, dated 1993)

Molecular target: T1, récepteurs 5-HT3 (Rattus norvegicus, UniProt P35563)
T1 construct: induite par l'injection intraveineuse d'agonistes 5-HT3 chez le rat anesthésié à l'uréthane; from tissue; host or cells: whole animal: Sprague-Dawley rat, vagal afferents
T1 sequence (P35563 24-483): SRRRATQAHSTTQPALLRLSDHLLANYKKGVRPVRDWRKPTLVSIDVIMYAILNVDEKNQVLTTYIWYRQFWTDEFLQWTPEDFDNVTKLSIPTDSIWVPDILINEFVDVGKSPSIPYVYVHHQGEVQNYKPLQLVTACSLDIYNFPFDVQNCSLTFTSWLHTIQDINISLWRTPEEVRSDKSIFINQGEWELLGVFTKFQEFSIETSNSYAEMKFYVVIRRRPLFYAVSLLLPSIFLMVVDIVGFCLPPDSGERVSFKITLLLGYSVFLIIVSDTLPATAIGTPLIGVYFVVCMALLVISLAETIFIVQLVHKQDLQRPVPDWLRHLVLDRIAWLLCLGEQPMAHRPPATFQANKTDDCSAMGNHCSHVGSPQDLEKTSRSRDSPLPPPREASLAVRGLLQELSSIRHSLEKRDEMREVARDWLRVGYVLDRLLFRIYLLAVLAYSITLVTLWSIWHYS
Assay: Bezold-Jarisch bradycardic reflex in the urethane-anaesthetised rat
Type: in vivo
Settings: for duration of the transient fall of rythme cardiaque: 30 µg i.v.; for prevention of the agonist-induced fall of rythme cardiaque: prior i.v. administration, dose 1 µg/kg
Excerpt: La bradycardie (réflexe de BEZOLD-JARISCH) est induite par l'injection intraveineuse d'agonistes 5-HT3 chez le rat anesthésié à l'uréthane. Cette réponse consiste en une bradycardie brutale mais transitoire induite par la stimulation des récepteurs 5-HT3 sur les afférences vagales. Ce modèle est donc tout à fait approprié pour révéler d'éventuels effet agonistes ou antagonistes de composés qui sont des ligands potentiels des récepteurs 5-HT3.
L'animal (rat mâle, adulte - souche Sprague-Dawley, 250-300 g) est tout d'abord anesthésié à l'uréthane (1,4 g/kg i.p.) puis trachéotomisé pour la mise en place d'une canule trachéale. Un cathéter (0,3 mm) est introduit dans l'aorte abdominale via l'artère fémorale pour l'enregistrement en continu de la pression artérielle et du rythme cardiaque. Les agents pharmacologiques sont injectés dans la veine saphène qui a été canulée à cet effet.

| Structure (SMILES) | duration of the transient fall of rythme cardiaque | prevention of the agonist-induced fall of rythme cardiaque |
| --- | --- | --- |
| Cc1[nH]c2ccc(O)cc2c1CCN [2-méthyl-5-tryptamine, 2-méthyl-5 hydroxytryptamine] | 4-5 secondes | – |
| NCCc1c[nH]c2ccc(O)cc12 [sérotonine] | 4-5 secondes | – |
| COc1cc(N)c(Cl)cc1C(=O)NC1CN2CCC1CC2 (stereo not shown) [zacopride] | – | complétement empêché |
| Cc1nccn1CC1CCc2c(c3ccccc3n2C)C1=O (stereo not shown) [ondansetron] | – | complétement empêché |
